# Assay results taken from patent US20250154127A1, “BICYCLIC HETEROARYL COMPOUNDS AND USES THEREOF” (ETERN BIOPHARMA (SHANGHAI) CO., LTD., priority 2022, published 2025).
# What was measured:
# [1] = target: TEAD1(210-426) binding to YAP(50-100) (Homo sapiens, UniProt P28347); test: TR-FRET Assay for TEAD1(210-426) Binding to YAP(50-100); details: His-TEAD 10 nM, YAP-Biotin peptide 50 nM
# Experimental: Compounds were performed 3 fold serial dilution, 12 data points, added to 384 well white plate. The final DMSO concentration is 1%, duplicate for each concentration. Then His-TEAD protein was added to a final concentration of 10 nM, and allowed to preincubate for 30 minutes at room temperature. Assay buffer was added as background control.
# YAP-Biotin peptide was added to a final concentration of 50 nM, mixed well, incubate 10 minutes at room temperature. The YAP(50-100) peptide sequence used here is named SEQ ID NO: 2
# The Europium-labeled anti-6×His antibody and APC labeled streptavidin were diluted according to the instructions, this detection solution was mixed 1:1 with reaction solution, incubated 1 hour at room temperature.
# TR-FRET measurements were made on an Envision (Perkin Elmer), using an excitation wavelength of 320 nm and emissions read at 620 nm and 665 nm. The ratio of the 665 nm to the 620 nm multiply 10000 provides a normalized TR-FRET signal that represents the extent of binding.
# Half inhibition concentration IC50 value was calculated by XLfit software.
# [2] = test system: MSTO-211H cells; test: Proliferation Assay (CellTiter-Glo Luminescent Cell Viability Assay); assay type: cell-based; details: Homo sapiens, 96 hours treatment
# Experimental: Example 5: Proliferation Assay
# The effect of compound on YAP driven cancer cells proliferation was assessed in MSTO-211H (ATCC, CRL-2081TM) or NCI-H2052 (ATCC, CRL-5915TM) cells using CellTiter-Glo Luminescent Cell Viability Assay (Promega, G7570).
# Briefly, individual cell lines were seeded in 96-well cell culture plate at the density of 1,500 cells per well and cultured in RPMII1640 (Gibco-A10491-01)+10% FBS (Gibco-10099-141C)+1% Penicillin-Streptomycin (5,000 U/mL, Gibco-15070-063) overnight at 37° C. with 5% CO2 before adding the compounds.
# Following incubation, serial dilutions of compounds dissolved in DMSO were added to each well (3-fold dilution with 9 concentration points). The final concentration of DMSO present in this assay is below 0.5% and make duplication for each compound treated well.
# Following 96 hours treatment, compound mediated cell growth inhibition was measured using CellTiter-Go Luminescent Cell Viability Assay (Promega, G7570). […] CellTiter-Glo in each assay well, mix and incubate at room temperature for 10 min. Read signal using EnVision® Multilabel Plate Reader (Perkin Elmer).
# For data analysis, cell proliferation inhibition was calculated using the following formula:
# Inhibition %=(1−(Compound treated well CTG signal/DMSO well CTG signal))*100.
# IC50 values were calculated using GraphPad Prism software using a four-parameter fit model.
# Chain of TEAD1(210-426) binding to YAP(50-100) (P28347 209-426): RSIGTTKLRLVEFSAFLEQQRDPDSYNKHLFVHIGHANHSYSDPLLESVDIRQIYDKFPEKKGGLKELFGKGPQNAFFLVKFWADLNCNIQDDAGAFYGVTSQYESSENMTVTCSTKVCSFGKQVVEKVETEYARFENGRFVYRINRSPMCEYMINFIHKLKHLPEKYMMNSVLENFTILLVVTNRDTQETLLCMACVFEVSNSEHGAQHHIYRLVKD
Compound,IC50 [1] [nM],IC50 [2] [nM]
"C[C@H](c1ccccn1)n1ccc(-c2nn(-c3ccc(C(F)(F)F)cc3)c3cccnc23)cc1=O [Compound 3, (R)-1-(1-(pyridin-2-yl)ethyl)-4-(1-(4-(trifluoromethyl)phenyl)-1H-pyrazolo[4,3-b]pyridin-3-yl)pyridin-2(1H)-one]",100 to 1000,1000 to 10000
"C[C@@H](c1ccccn1)n1ccc(-c2nn(-c3ccc(Cl)cc3)c3cccnc23)cc1=O [Compound 5, (S)-4-(1-(4-chlorophenyl)-1H-pyrazolo[4,3-b]pyridin-3-yl)-1-(1-(pyridin-2-yl)ethyl)pyridin-2(1H)-one]",≤ 100,1000 to 10000
"Cn1ccc(-c2nn(-c3ccc(C(F)(F)F)cc3)c3cccnc23)cc1=O [Compound 10, 1-methyl-4-(1-(4-(trifluoromethyl)phenyl)-1H-pyrazolo[4,3-b]pyridin-3-yl)pyridin-2(1H)-one]",> 1000,–
"C[C@@H](c1ccccn1)n1ccc(-c2nn(-c3ccc(C(F)(F)F)cc3)c3ccccc23)cc1=O [Compound 11, (S)-1-(1-(pyridin-2-yl)ethyl)-4-(1-(4-(trifluoromethyl)phenyl)-1H-indazol-3-yl)pyridin-2(1H)-one]",≤ 100,≤ 1000
"O=c1cc(-c2nn(-c3ccc(C(F)(F)F)cc3)c3ccccc23)ccn1Cc1ccccn1 [Compound 12, 1-(pyridin-2-ylmethyl)-4-(1-(4-(trifluoromethyl)phenyl)-1H-indazol-3-yl)pyridin-2 (1H)-one]",≤ 100,1000 to 10000
"C[C@@H](c1cccnc1)n1ccc(-c2nn(-c3ccc(C(F)(F)F)cc3)c3ccccc23)cc1=O [Compound 13, (S)-1-(1-(pyridin-3-yl)ethyl)-4-(1-(4-(trifluoromethyl)phenyl)-1H-indazol-3-yl)pyridin-2(1H)-one]",≤ 100,≤ 1000
"C[C@@H](c1ccncc1)n1ccc(-c2nn(-c3ccc(C(F)(F)F)cc3)c3ccccc23)cc1=O [Compound 14, (S)-1-(1-(pyridin-4-yl)ethyl)-4-(1-(4-(trifluoromethyl)phenyl)-1H-indazol-3-yl)pyridin-2(1H)-one]",≤ 100,≤ 1000
C[C@@H](c1ccccn1)n1ccc(-c2nn(-c3ccc(C(F)(F)F)cc3)c3ccc(C(=O)O)cc23)cc1=O [Compound 21],100 to 1000,–
"COC(=O)c1ccc2c(c1)c(-c1ccn([C@@H](C)c3ccccn3)c(=O)c1)nn2-c1ccc(C(F)(F)F)cc1 [Compound 22, methyl (S)-3-(2-oxo-1-(1-(pyridin-2-yl)ethyl)-1,2-dihydropyridin-4-yl)-1-(4-(trifluoromethyl)phenyl)-1H-indazole-5-carboxylate]",100 to 1000,–
C[C@@H](c1ccccn1)n1ccc(-c2nn(-c3ccc(C(F)(F)F)cc3)c3ccc(C#N)cc23)cc1=O [Compound 25],100 to 1000,–
"COC(=O)c1ccc2c(-c3ccn([C@@H](C)c4ccccn4)c(=O)c3)nn(-c3ccc(C(F)(F)F)cc3)c2c1 [Compound 26, methyl (S)-3-(2-oxo-1-(1-(pyridin-2-yl)ethyl)-1,2-dihydropyridin-4-yl)-1-(4-(trifluoromethyl)phenyl)-1H-indazole-6-carboxylate]",100 to 1000,–
O=c1cc(-c2nn(-c3ccc(C(F)(F)F)cc3)c3ccccc23)ccn1C1CCOCC1 [Compound 27],> 1000,–
"Cn1cc(Cn2ccc(-c3nn(-c4ccc(C(F)(F)F)cc4)c4ccccc34)cc2=O)cn1 [Compound 36, 1-((1-methyl-1H-pyrazol-4-yl)methyl)-4-(1-(4-(trifluoromethyl)phenyl)-1H-indazol-3-yl)pyridin-2(1H)-one]",100 to 1000,–
"CN(CCO)c1ccnc(Cn2ccc(-c3nn(-c4ccc(C(F)(F)F)cc4)c4ccccc34)cc2=O)n1 [Compound 79, 1-((4-((2-hydroxyethyl)(methyl)amino)pyrimidin-2-yl)methyl)-4-(1-(4-(trifluoromethyl)phenyl)-1H-indazol-3-yl)pyridin-2(1H)-one]",–,≤ 1000
"CNc1nccc(Cn2ccc(-c3nn(-c4ccc(C(F)F)cc4)c4ncccc34)cc2=O)n1 [Compound 144, 4-(1-(4-(difluoromethyl)phenyl)-1H-pyrazolo[3,4-b]pyridin-3-yl)-1-((2-(methylamino)pyrimidin-4-yl)methyl) pyridin-2(1H)-one]",–,≤ 1000

# The next lines start with results.
IC50 [1] [nM],Compound,IC50 [2] [nM]
≤ 100,"C[C@@H](c1ccccn1)n1ccc(-c2nn(-c3ccc(OC(F)(F)F)cc3)c3cccnc23)cc1=O [Compound 1, (S)-1-(1-(pyridin-2-yl)ethyl)-4-(1-(4-(trifluoromethoxy)phenyl)-1H-pyrazolo[4,3-b]pyridin-3-yl)pyridin-2(1H)-one]",≤ 1000
≤ 100,"C[C@@H](c1ccccn1)n1ccc(-c2nn(-c3ccc(C(F)(F)F)cc3)c3cccnc23)cc1=O [Compound 2, (S)-1-(1-(pyridin-2-yl)ethyl)-4-(1-(4-(trifluoromethyl)phenyl)-1H-pyrazolo[4,3-b]pyridin-3-yl)pyridin-2(1H)-one]",≤ 1000
100 to 1000,"C[C@@H](c1ccccn1)n1ccc(-c2nn(-c3ccc(F)cc3)c3cccnc23)cc1=O [Compound 4, (S)-4-(1-(4-fluorophenyl)-1H-pyrazolo[4,3-b]pyridin-3-yl)-1-(1-(pyridin-2-yl)ethyl)pyridin-2(1H)-one]",1000 to 10000
100 to 1000,"C[C@@H](c1ccccn1)n1ccc(-c2nn(-c3cccc(C(F)(F)F)c3)c3cccnc23)cc1=O [Compound 6, (S)-1-(1-(pyridin-2-yl)ethyl)-4-(1-(3-(trifluoromethyl)phenyl)-1H-pyrazolo[4,3-b]pyridin-3-yl)pyridin-2(1H)-one]",1000 to 10000
≤ 100,"CCC(c1ccccn1)n1ccc(-c2nn(-c3ccc(C(F)(F)F)cc3)c3cccnc23)cc1=O (centres unmarked) [Compound 7, 1-(1-(pyridin-2-yl)propyl)-4-(1-(4-(trifluoromethyl)phenyl)-1H-pyrazolo[4,3-b]pyridin-3-yl)pyridin-2(1H)-one]",1000 to 10000
100 to 1000,"CC(C)n1ccc(-c2nn(-c3ccc(C(F)(F)F)cc3)c3cccnc23)cc1=O [Compound 8, 1-isopropyl-4-(1-(4-(trifluoromethyl)phenyl)-1H-pyrazolo[4,3-b]pyridin-3-yl)pyridin-2(1H)-one]",≤ 1000
≤ 100,"C[C@@H](c1ccccn1)n1ccc(-n2nc(-c3ccc(C(F)(F)F)cc3)c3ncccc32)cc1=O [Compound 9, (S)-1-(1-(pyridin-2-yl)ethyl)-4-(3-(4-(trifluoromethyl)phenyl)-1H-pyrazolo[4,3-b]pyridin-1-yl)pyridin-2(1H)-one]",≤ 1000
100 to 1000,C[C@@H](c1ccccn1)n1ccc(-c2nn(-c3ccc(C(F)(F)F)cc3)c3ccc(C(N)=O)cc23)cc1=O [Compound 23],–
≤ 100,"C[C@@H](c1ccccn1)n1ccc(-n2nc(-c3ccc(C(F)(F)F)cc3)c3cccnc32)cc1=O [Compound 32, (S)-1-(1-(pyridin-2-yl)ethyl)-4-(3-(4-(trifluoromethyl)phenyl)-1H-pyrazolo[3,4-b]pyridin-1-yl)pyridin-2(1H)-one]",–
≤ 100,"C[C@@H](c1ccccn1)n1ccc(-c2nc(-c3ccc(C(F)(F)F)cc3)n3ccccc23)cc1=O [Compound 35, (S)-1-(1-(pyridin-2-yl)ethyl)-4-(3-(4-(trifluoromethyl)phenyl)imidazo[1,5-a]pyridin-1-yl)pyridin-2(1H)-one]",–
